# Test results reported in patent publication US20160046582A1 (Teva Pharmaceutical Industries Ltd., priority 2014, published 2016).
# Read-outs that look alike come from different tables or passages of the source.
# Assays:
# Hygroscopicity = type: physicochemical; conditions: exposure to air
# [1] = Chemical stability observed on handling or purification; type: physicochemical; conditions: most organic solvents and aqueous acidic medium
# [2] = Particle size distribution by Malvern laser diffraction (Mastersizer S); type: physicochemical; conditions: for PSD by Malvern D(0.9) / PSD by Malvern d(0.1) / PSD by Malvern d(0.5): modified pilot scale, 2.5 kg batch
# Experimental: The particle size distributions were measured by Malvern Laser Diffraction, using the Mastersizer S model. Laser diffraction relies on the fact that diffraction angle of light is inversely proportional to particle size. Properties of particles are measured and interpreted as measurements of a sphere (a sphere being the only shape that can be described by one unique number). In addition, laser diffraction calculates a particle size distribution based around volume terms, thus eliminating particle count from the determination of particle size. The Mastersizer S model measures particles using a single technique and a single range setting.
# D(0.1) is the particle size, in microns, below which 10% by volume distribution of the population is found. D(0.5) is the particle size, in microns, below which 50% by volume distribution of the population is found. D(0.9) is the particle size, in microns, below which 90% by volume distribution of the population is found.
# Bulk density of powder = type: physicochemical; conditions: production scale
# Experimental: • 1. Mix powder; • 2. Tare a 50 ml empty cylinder on a 0.01 g sensitivity balance; • 3. Transfer the powder, without compacting, to the cylinder being held at approximately a 45 degree angle to achieve an untapped apparent volume of 40 to 50 ml. • 4. Bring the cylinder containing the sample to a vertical position by a sharp move in order to level the volume for reading. • 5. Read the apparent volume (Va) to the nearest graduated unit; • 6. Weigh the cylinder with sample (the balance gives sample weight M); • 7. Calculate bulk density in g/ml according to the following equation: BD=M/Va; • 8. Perform steps 1-7 again and report the average data of duplicates.
# [3] = Tapped density of powder (Quantachrome Dual Autotap, 1250 taps); type: physicochemical; conditions: production scale
# Description: • 1. Put the same cylinder used to calculate Bulk Density in a Quantachrome Dual Autotap instrument; • 2. Perform 1250 taps; • 3. Read the tapped volume (Vf) to the nearest graduated unit; • 4. Calculate the tapped density in g/ml according to the following equation: TD=M/Vf; • 5. Perform steps 1-4 again and report the average data of duplicates.
# [4] = prior art examples; cited from earlier work
# [5] = cited from earlier work
# [6] = Solubility in water (description of drug substance); type: physicochemical
# Description: The solubility terms are defined below, in accordance with the United States Pharmacopoeia XXV.
# [7] = cited from earlier work; remark: listed apart in the source
# [8] = tested on: active MRI lesions in relapsing MS; conditions: cited from earlier work
# [9] = tested on: acute experimental autoimmune encephalomyelitis (aEAE) model; conditions: in vivo; cited from earlier work
# [10] = In vitro AMES test (CRL studies No. 962723 and No. 963892); type: cell-based; conditions: MCQ: pre-incubation method, CRL study No. 962723, MCQME: CRL study No. 963892
# [11] = In vivo MN (Covance study No. 8246631)
# [12] = laboratory scale, 25 g batch, prior art
# [13] = laboratory scale recrystallization, 25 g
# [14] = starting material of the recrystallization
smiles,measurement,setting,value
"CCN(C(=O)c1c(O)c2c(N(C)C[C@H](O)[C@@H](O)[C@H](O)[C@H](O)CO)cccc2n(C)c1=O)c1ccccc1 (stereo in doubt) [MEG-LAQ, N-ethyl-4-hydroxy-1-methyl-5-(methyl(2,3,4,5,6-pentahydroxyhexyl)amino)-2-oxo-N-phenyl-1,2-dihydroquinoline-3-carboxamide]",hygroscopicity,Hygroscopicity,high hygroscopicity
"CCN(C(=O)c1c(O)c2c(O)cccc2n(C)c1=O)c1ccccc1 [Batch 5-HLAQ, N-ethyl-4,5-dihydroxy-1-methyl-2-oxo-N-phenyl-1,2-dihydroquinoline-3-carboxamide]",stability in solvents,[1],unstable
CCN(C(=O)c1c([O-])c2c(Cl)cccc2n(C)c1=O)c1ccccc1.[Na+] [Batch C],PSD D(0.1),[2]; production scale,4.1 μm
same,PSD D(0.5),[2]; production scale,14.0 μm
same,PSD D(0.9),[2]; production scale,32.0 μm
same,Bulk Density,Bulk density of powder,0.308 g/mL
same,Tapped Density,[3],0.609 g/mL
CCN(C(=O)c1c([O-])c2c(Cl)cccc2n(C)c1=O)c1ccccc1.[Na+] [Batch D],PSD D(0.5),[2]; production scale,14.7 μm
same,PSD D(0.9),[2]; production scale,33.6 μm
same,Bulk Density,Bulk density of powder,0.288 g/mL
CCN(C(=O)c1c([O-])c2c(Cl)cccc2n(C)c1=O)c1ccccc1.[Na+] [Batch E],PSD D(0.1),[2]; production scale,2.5 μm
same,PSD D(0.5),[2]; production scale,9.5 μm
same,PSD D(0.9),[2]; production scale,21.0 μm
same,Bulk Density,Bulk density of powder,0.245 g/mL
same,Tapped Density,[3],0.460 g/mL
"CCN(C(=O)c1c([O-])c2c(Cl)cccc2n(C)c1=O)c1ccccc1.[Na+] [Example 13 of U.S. Pat. No. 7,884,208]",Tapped Density (in words),[4],high
"CCN(C(=O)c1c([O-])c2c(Cl)cccc2n(C)c1=O)c1ccccc1.[Na+] [Example 14 of U.S. Pat. No. 7,884,208]",size of 10% or more of the total amount by volume of the particles,[5]; prior art example,less than 5 microns
same,Tapped Density (in words),[4],undesired
"CCN(C(=O)c1c([O-])c2c(Cl)cccc2n(C)c1=O)c1ccccc1.[Na+] [Example 15 from U.S. Pat. No. 7,884,208]",PSD by Malvern D(0.9),[5]; [12],51.8 um
same,PSD by Malvern d(0.1),[5]; [12],6.1 um
same,PSD by Malvern d(0.5),[5]; [12],21.2 um
CCN(C(=O)c1c([O-])c2c(Cl)cccc2n(C)c1=O)c1ccccc1.[Na+] [Laboratory Scale Batch A],PSD D(0.1),[2]; [13],2.3 μm
same,PSD D(0.5),[2]; [13],10.8 μm
same,PSD D(0.9),[2]; [13],32.7 μm
CCN(C(=O)c1c([O-])c2c(Cl)cccc2n(C)c1=O)c1ccccc1.[Na+] [Laboratory Scale Batch B],PSD D(0.1),[2]; [13],2.6 μm
same,PSD D(0.5),[2]; [13],12.4 μm
same,PSD D(0.9),[2]; [13],34.3 μm
CCN(C(=O)c1c([O-])c2c(Cl)cccc2n(C)c1=O)c1ccccc1.[Na+] [Laquinimod sodium],solubility in water,[6],freely soluble
same,oral bioavailability,[7],high
"CCN(C(=O)c1c(O)c2c(Cl)cccc2n(C)c1=O)c1ccccc1 [Laquinimod, N-ethyl-N-phenyl-1,2,-dihydro-4-hydroxy-5-chloro-1-methyl-2-oxoquinoline-3-carboxamide]",development of active MRI lesions,[8],can reduce development of active MRI lesions
same,efficacy in aEAE model,[9],effective
"Cn1c(=O)cc(O)c2c(Cl)cccc21 [MCQ, 5-chloro-4-hydroxy-1-methylquinolin-2(1H)-one]",AMES test genotoxic activity,[10],AMES data negative in the pre-incubation
"COC(=O)c1c(O)c2c(Cl)cccc2n(C)c1=O [MCQME, methyl 5-chloro-4-hydroxy-1-methyl-2-oxo-1,2-dihydroquinoline-3-carboxylate]",AMES test genotoxic activity,[10],Weak genotoxic activity in the in vitro
same,in vivo MN,[11],negative in the in vivo MN
CCN(C(=O)c1c([O-])c2c(Cl)cccc2n(C)c1=O)c1ccccc1.[Na+] [Pilot Scale Batch A],PSD by Malvern D(0.9),[2],33.8 um
same,PSD by Malvern d(0.1),[2],3.3 um
same,PSD by Malvern d(0.5),[2],12.9 um
CCN(C(=O)c1c([O-])c2c(Cl)cccc2n(C)c1=O)c1ccccc1.[Na+] [Pilot Scale Batch B],PSD by Malvern D(0.9),[2],33.9 um
same,PSD by Malvern d(0.1),[2],4.1 um
same,PSD by Malvern d(0.5),[2],13.5 um
CCN(C(=O)c1c([O-])c2c(Cl)cccc2n(C)c1=O)c1ccccc1.[Na+] [crude laquinimod sodium],particle size d(0.1),[2]; [14],1-2 μ
same,particle size d(0.5),[2]; [14],6-11 μ
same,particle size d(0.9),[2]; [14],20-35 μ
